Test results reported in ChEMBL document CHEMBL1145939, “Analyses of activity for factor Xa inhibitors based on Monte Carlo simulations” (J Med Chem, 2003).

Molecular target: Coagulation factor X (Homo sapiens, UniProt P00742)
Assay: Inhibition of human Coagulation factor X was determined

Sequence of Coagulation factor X (P00742 41-179 limits assumed): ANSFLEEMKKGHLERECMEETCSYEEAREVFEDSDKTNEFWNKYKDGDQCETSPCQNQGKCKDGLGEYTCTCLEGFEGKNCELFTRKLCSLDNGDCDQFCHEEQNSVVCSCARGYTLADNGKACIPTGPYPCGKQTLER
Sequence of Coagulation factor X (P00742 235-488 limits assumed): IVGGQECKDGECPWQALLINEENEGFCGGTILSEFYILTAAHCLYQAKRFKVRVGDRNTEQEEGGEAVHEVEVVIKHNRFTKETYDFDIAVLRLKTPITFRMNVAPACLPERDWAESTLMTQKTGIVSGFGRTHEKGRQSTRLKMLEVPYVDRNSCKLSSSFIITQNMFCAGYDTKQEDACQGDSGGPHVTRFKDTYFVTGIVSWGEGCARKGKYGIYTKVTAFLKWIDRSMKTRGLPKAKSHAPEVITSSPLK

Row | Compound | Ki [µM]
1 | CN1CC(C)(C)N=C1c1cccc(Oc2cc(C(=O)O)cc(Oc3cc(C(=N)N)ccc3O)n2)c1 | 0.81
2 | Cc1c(F)c(Oc2cccc(CC(=O)C(C)C)c2)nc(Oc2cccc(C(=N)N)c2)c1F | 2.1
3 | Cc1c(F)c(Oc2cccc(C(=N)N)c2)nc(Oc2cccc(N3CCCCC3)c2)c1F | 0.65
4 | CC(=O)Cc1cccc(Oc2nc(Oc3cccc(C(=N)N)c3)c(F)c(C)c2F)c1 | 1.4
